# Tested on: pentagastrin-stimulated acid secretion of the perfused rat stomach
# Experiment: Secretion-inhibiting action on the perfused rat stomach
# Assay type: in vivo
# Conditions: dose 1 μmol/kg i.d., anesthetized CD rat, intraduodenal administration
# Excerpt: In Table A which follows, the influence of the compounds of the formula 1 according to the invention and of their optical antipodes of the formula 2 on the pentagastrin-stimulated acid secretion of the perfused rat stomach after intraduodenal administration in vivo is shown.
# The abdomen of anesthetized rats (CD rat, female, 200-250 g; 1.5 g/kg i.m. urethane) was opened after tracheotomy by a median upper abdominal incision and a PVC catheter was fixed transorally in the esophagus and another via the pylorus such that the ends of the tubes just projected into the gastric lumen. The catheter leading from the pylorus led outward into the right abdominal wall through a side opening.
# After thorough rinsing (about 50-100 ml), warm (37° C.) physiological NaCl solution was continuously passed through the stomach (0.5 ml/min, pH 6.8-6.9; Braun-Unita I). The pH (pH meter 632, glass electrode EA 147; φ=5 mm, Metrohm) and, by titration with a freshly prepared 0.01 N NaOH solution to pH 7 (Dosimat 665 Metrohm), the secreted HCl were determined in the effluent in each case collected at an interval of 15 minutes.
# The gastric secretion was stimulated by continuous infusion of […] (=1.65 ml/h) of i.v. pentagastrin (left femoral vein) about 30 min after the end of the operation (i.e. after determination of 2 preliminary fractions). The substances to be tested were administered intraduodenally in a 2.5 ml/kg liquid volume 60 min after the start of the continuous pentagastrin infusion. The body temperature of the animals was kept at a constant 37.8-38° C. by infrared irradiation and heat pads (automatic, stepless control by means of a rectal temperature sensor).
row,Structure (SMILES),Inhibition of acid secretion (%)
1,"Cc1nc2c3c(c(C(=O)N(C)C)cn2c1C)CC[C@@H](c1ccccc1)O3.O=C(O)C(O)C(O)C(=O)O [Example 1, (9S)-2,3-Dimethyl-9-phenyl-7H8,9dihydro-pyrano[2,3-c]-imidazo[1,2-a]pyridine-6-carboxylic acid dimethylamide (R,R)-tartrate]",100
2,"Cc1nc2c3c(c(C(=O)N(C)C)cn2c1C)CC[C@@H](c1ccccc1)O3 [Example 2, (9S)-2,3-Dimethyl-9-phenyl-7H-8,9-dihydro-pyrano[2,3c]-imidazo[1,2-a]pyridine-6-carboxylic acid dimethylamide]",100
3,"CNC(=O)c1cn2c(C)c(C)nc2c2c1CC[C@@H](c1ccccc1)O2 [Example 7, (9S)-2,3-Dimethyl-9-phenyl-7H-8,9-dihydro-pyrano[2,3-c]-imidazo[1,2-a]pyridine-6-carboxylic acid methylamide]",100
4,"Cc1ccccc1[C@@H]1CCc2c(C(=O)N(C)C)cn3c(C)c(C)nc3c2O1 [Example 9, (9S)-2,3-Dimethyl-9-(2-methylphenyl)-7H-8,9-dihydro-pyrano[2,3-c]-imidazo[1,2-a]pyridine-6-carboxylic acid dimethylamide]",100
5,"Cc1nc2c3c(c(C(=O)N(C)C)cn2c1C)CC[C@@H](c1ccccc1F)O3 [Example 10, (9S)-9-(2-Fluorophenyl)-2,3-dimethyl-7H-8,9-dihydro-pyrano[2,3-c]-imidazo[1,2-a]pyridine-6-carboxylic acid dimethylamide]",100
6,"Cc1nc2c3c(c(C(=O)N(C)C)cn2c1C)CC[C@@H](c1ccc(F)cc1)O3 [Example 11, (9S)-9-(4-Fluorophenyl)-2,3-dimethyl-7H-8,9-dihydro-pyrano[2,3-c]-imidazo[1,2-a]pyridine-6-carboxylic acid dimethylamide]",100
7,"Cc1ccccc1[C@H]1CCc2c(C(=O)N(C)C)cn3c(C)c(C)nc3c2O1 [I, (9R)-2,3-Dimethyl-9-(2-methylphenyl)-7H-8,9-dihydro-pyrano[2,3-c]-Imidazo[1,2-a]pyridine-6-carboxylic acid dimethylamide]",<50
8,"Cc1nc2c3c(c(C(=O)N(C)C)cn2c1C)CC[C@H](c1ccc(F)cc1)O3 [K, (9R)-9-(4-Fluorophenyl)-2,3dimethyl-7H-8,9-dihydro-pyrano[2,3-c]-imidazo[1,2-a]pyridine-6-carboxylic acid dimethylamide]",<40

# Same assay, conditions: dose 2 μmol/kg i.d., anesthetized CD rat, intraduodenal administration
row,Structure (SMILES),Inhibition of acid secretion (%)
1,"Cc1nc2c3c(c(C(N)=O)cn2c1C)CC[C@@H](c1ccccc1)O3 [Example 8, (9S)-2,3-Dimethyl-9-phenyl-7H-8,9-dihydro-pyrano[2,3c]-imidazo[1,2-a]pyridine-6-carboxylic acid amide]",100

# Same assay, conditions: dose 3 μmol/kg i.d., anesthetized CD rat, intraduodenal administration
row,Structure (SMILES),Inhibition of acid secretion (%)
1,"Cc1nc2c3c(c(C(=O)N(C)C)cn2c1C)CC[C@H](c1ccccc1)O3.O=C(O)C(O)C(O)C(=O)O [A, (9R)2,3-Dimethyl-9-phenyl-7H-8,9-dihydro-pyrano[2,3-c]-imidazo[1,2-a]pyridine-6-carboxylic acid dimethylamide (S,S)-tartrate]",<40
2,"Cc1nc2c3c(c(C(=O)N(C)C)cn2c1C)CC[C@H](c1ccccc1)O3 [B, (9R)-2,3-Dimethyl-9-phenyl-7H-8,9-dihydro-pyrano[2,3-c]-imidazo[1,2-a]pyridine-6-carboxylic acid dimethylamide]",<40
3,"Cc1nc2c3c(c(C(=O)N(C)C)cn2c1Br)CC[C@H](c1ccccc1)O3 [D, (9R)-3-Bromo-2-methyl-9-phenyl-7H-8,9-dihydro-pyrano[2,3-c]-imidazo[1,2-a]pyridine-6-carboxylic acid dimethylamide]",<40
4,"CCc1c(C)nc2c3c(c(C(=O)N(C)C)cn12)CC[C@H](c1ccccc1)O3 [E, (9R)-3-Ethyl-2-methyl-9-phenyl-7H-8,9-dihydro-pyrano[2,3-c]-imidazo[1,2-a]pyridine-6-carboxylic acid dimethylamide]",<30
5,"Cc1nc2c3c(c(C(=O)N(C)C)cn2c1Br)CC[C@@H](c1ccccc1)O3 [Example 4, (9S)-3Bromo-2-methyl-9-phenyl-7H-8,9-dihydro-pyrano[2,3-c]-imidazo[1,2-a]pyridine-6-carboxylic acid dimethylamide]",>60
6,"CCc1c(C)nc2c3c(c(C(=O)N(C)C)cn12)CC[C@@H](c1ccccc1)O3 [Example 5, (9S)-3-Ethyl-2-methyl-9-phenyl-7H-8,9-dihydro-pyrano[2,3c]-imidazo[1,2-a]pyridine-6-carboxylic acid dimethylamide]",>70
7,"Cc1nc2c3c(c(C(=O)N4CCCC4)cn2c1C)CC[C@@H](c1ccccc1)O3 [Example 6, (9S)-(2,3-Dimethyl-9-phenyl-7H-8,9-dihydro-pyrano[2,3c]-imidazo[1,2-a]pyridin-6-yl)-pyrrolidin-1-yl methanone]",100
8,"Cc1nc2c3c(c(C(=O)N(C)C)cn2c1C)CC[C@@H](c1cccs1)O3 [Example 12, (9S)-2,3-Dimethyl-9-thiophen-2-yl-7H-8,9-dihydro-pyrano[2,3-c]-imidazo[1,2-a]pyridine-6-carboxylic acid dimethylamide]",100
9,"COCc1cn2c(C)c(C)nc2c2c1CC[C@@H](c1ccccc1)O2 [Example 13, (9S)-6-Methoxymethyl-2,3-dimethyl-9-phenyl-7H-8,9-dihydro-pyrano[2,3-c]-imidazo[1,2-a]pyridine]",100
10,"Cc1nc2c3c(c(C(=O)N4CCCC4)cn2c1C)CC[C@H](c1ccccc1)O3 [F, (9R)-(2,3-Dimethyl-9-phenyl-7H-8,9-dihydro-pyrano[2,3-c]-imidazo[1,2-a]pyridin-6-yl)-pyrrolidin-1-yl methanone]",<40
11,"CNC(=O)c1cn2c(C)c(C)nc2c2c1CC[C@H](c1ccccc1)O2 [G, (9R)-2,3-Dimethyl-9-phenyl-7H-8,9-dihydro-pyrano[2,3-c]-imidazo[1,2-a]pyridine-6-carboxylic acid methylamide]",<40
12,"Cc1nc2c3c(c(C(N)=O)cn2c1C)CC[C@H](c1ccccc1)O3 [H, (9R)-2,3-Dimethyl-9-phenyl-7H-8,9-dihydro-pyrano[2,3-c]-imidazo[1,2-a]pyridine-6-carboxylic acid amide]",<40
13,"Cc1nc2c3c(c(C(=O)N(C)C)cn2c1C)CC[C@H](c1ccccc1F)O3 [J, (9R)-9-(2-Fluorophenyl)-2,3-dimethyl-7H-8,9-dihydro-pyrano[2,3c]-imidazo[1,2-a]pyridine-6-carboxylic acid dimethylamide]",<50

# Same assay, conditions: dose 6 μmol/kg i.d., anesthetized CD rat, intraduodenal administration
row,Structure (SMILES),Inhibition of acid secretion (%)
1,"Cc1nc2c3c(c(C(=O)N(C)C)cn2c1CO)CC[C@H](c1ccccc1)O3 [C, (9R)-3-Hydroxymethyl-2-methyl-9-phenyl-7H-8,9-dihydro-pyrano[2,3c]-imidazo[1,2-a]pyridine-6-carboxylic acid dimethylamide]",<30
2,"Cc1nc2c3c(c(C(=O)N(C)C)cn2c1CO)CC[C@@H](c1ccccc1)O3 [Example 3, (9S)-3-Hydroxymethyl-2-methyl-9-phenyl-7H-8,9-dihydro-pyrano[2,3-c]-imidazo[1,2-a]pyridine-6-carboxylic acid dimethylamide]",>50

# Source: patent publication US20070066674A1, “Tricyclic imidzopyridines for use as gastric secretion inhibitors” (Altana Pharma AG, priority 2003, published 2007)
